Laboratory results published in patent publication US8450283B2, “Composition for treating cancer and use thereof” (National Taiwan University, priority 2008, dated 2013).
Entries after “also recorded” stand apart in the source; their conditions may differ. Where a SMILES comes first, the peptide text is derived from it. Bridges are numbered along the chain shown (N, C = ends).

What was measured:
CL1-5 cells [1] = experiment: In vitro invasion assay (modified Boyden chamber, Matrigel); assay type: cell-based, human; conditions: 48 h, Matrigel-coated Transwell
Procedure: A modified Boyden chamber system was used to investigate the invasive capability of CL cells treated with selected peptides, sNRP1, and siRNA of NRP1 (Chu Y W, et al., Am J Respir Cell Mol Biol 1997, 17: 353-360). The polycarbonate membranes (containing 8-μm pores) of Transwell inserts were coated with Matrigel. The cells were suspended in RPMI 1640 containing 10% NuSerum (Life Science), and 2.5×10^4 cells were placed into the upper well of each chamber. After incubation for 48 h at 37° C., the Transwell membrane was fixed with methanol for 10 min at room temperature and stained with a 50 μg/mL solution of propidium iodide (Sigma) for 30 min at room temperature. The number of cells in each membrane was counted under a microscope at a magnification of ×50 using the Analytical Imaging Station software package (Imaging Research Inc.). Each sample was assayed in triplicate.

PI3K = experiment: Phosphoinositide-3-kinase activity assay in CL1-5 cells; assay type: cell-based, human; conditions: 48 h after transfection, 1.3 nmol/L VEGF165, vs nonsilencing siRNA
Procedure: Phosphoinositide-3-kinase (PI3K) activities were assayed as described previously (Lin M T, et al., J Biol Chem 2001, 276: 48997-49002) with some modifications. In brief, CL1-5 cell extracts were incubated with the antiphosphotyrosine antibody and then precipitated with protein A-Sepharose. The immunocomplexes were preincubated with phosphatidylinositol-4,5-P2 (Sigma), and the kinase reaction was initiated by adding 10 μCi of [γ-^32P]ATP in reaction buffer for 15 min. Phospholipids were separated by TLC and visualized by phosphorimaging.

NRP1 [2] = experiment: NRP1 expression after siRNA transfection (Western blot); assay type: cell-based, human; conditions: CL1-5 cells transfected with siRNA
CL1-5 cells [3] = experiment: Scratch wound healing migration assay; assay type: cell-based, human; conditions: 24 h after scratch, 24 nmol/L siRNA
Procedure: Cell migration was measured by the in vitro scratch wound healing assay (Tamura M, et al., Science 1998, 280: 1614-1617). CL1-5 cells were transfected with 24 nmol/L siRNA-1 in 12-well plates. Twenty-four hours after transfection, cells were scratched with a yellow pipette tip and photographed 18, 21, and 24 h after the scratch. The cell migration at 0, 18, 21, and 24 h was evaluated by counting cells that had migrated from the wound edge.

NRP1 [4] = target: T1, NRP1 (Homo sapiens, UniProt O14786); experiment: Surface plasmon resonance (Biacore) binding of selected peptides to NRP1; conditions: 25° C., immobilized recombinant NRP1, read-out: ka
T1 construct: Recombinant soluble NRP1 (sNRP1) protein containing His6 and c-Myc domain tags was synthesized in NIH-3T3 murine fibroblast cells; His6; c-Myc; made in house; host or cells: NIH-3T3 fibroblast cells, secreted into medium, purified on Ni-NTA
T1 sequence (O14786 22-644 isoform O14786-2 limits assumed): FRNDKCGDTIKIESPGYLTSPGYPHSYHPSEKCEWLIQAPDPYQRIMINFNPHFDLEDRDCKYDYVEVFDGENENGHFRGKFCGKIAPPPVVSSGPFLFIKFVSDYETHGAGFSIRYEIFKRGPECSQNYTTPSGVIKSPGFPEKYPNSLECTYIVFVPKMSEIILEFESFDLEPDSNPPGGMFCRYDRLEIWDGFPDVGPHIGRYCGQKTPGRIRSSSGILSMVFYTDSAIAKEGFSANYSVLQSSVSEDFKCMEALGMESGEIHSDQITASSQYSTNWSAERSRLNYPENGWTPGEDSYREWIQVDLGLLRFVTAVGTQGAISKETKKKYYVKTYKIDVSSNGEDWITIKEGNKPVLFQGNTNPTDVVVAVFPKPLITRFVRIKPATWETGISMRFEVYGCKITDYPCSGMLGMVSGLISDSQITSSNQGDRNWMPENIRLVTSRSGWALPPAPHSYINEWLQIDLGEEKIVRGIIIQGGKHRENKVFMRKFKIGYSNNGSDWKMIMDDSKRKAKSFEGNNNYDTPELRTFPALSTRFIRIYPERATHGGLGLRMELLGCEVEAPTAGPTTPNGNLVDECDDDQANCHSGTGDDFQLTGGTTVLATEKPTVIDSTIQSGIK
Procedure: (§1) The binding kinetics of selected peptides with NRP1 were tested using the surface plasmon resonance based measuring system (Biacore AB) at 25° C. Recombinant NRP1 was immobilized on CM5 sensor chips by amine coupling at 400 response units using the amine coupling kit (Biacore) according to the manufacturer's instructions. Binding was detected in resonance units after injecting various concentrations of peptide at a flow rate of 30 μL/min. Sensograms of association and dissociation were recorded and analyzed using BIAevaluation software 3.0 (Biacore AB).

CL1-5 cells [5] = experiment: Cytotoxicity / cell viability of peptide-treated cancer cells; assay type: cell-based, human; conditions: peptide treatment of cancer cells
human VEGF165 = target: T2, human VEGF165 (Homo sapiens, UniProt P15692); experiment: Surface plasmon resonance binding of recombinant sNRP1 to VEGF165; conditions: read-out: average dissociation constant (KD) of human VEGF165 binding to sNRP1
T2 construct: purchased PeproTech, Inc
T2 sequence (P15692 27-191 isoform P15692-4): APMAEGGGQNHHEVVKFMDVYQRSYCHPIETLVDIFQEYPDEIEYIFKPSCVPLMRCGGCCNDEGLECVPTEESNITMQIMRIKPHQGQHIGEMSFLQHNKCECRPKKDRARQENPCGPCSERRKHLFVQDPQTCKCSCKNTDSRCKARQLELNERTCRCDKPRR
Procedure: as §1

CL1-5 cells [6] = experiment: Filamentous actin staining (rhodamine-phalloidin); assay type: cell-based, human
Procedure: For filamentous actin (F-actin) staining, cells were seeded on coverslips in 24-well plates and allowed to attach for 24 h in medium containing 10% FCS. The cells were fixed, washed, and permeabilized in 0.1% Triton-X. The cells were incubated for 30 min with 5 units/mL of rhodamine-conjugated phalloidin (Molecular Probe) and mounted using Fluor Save reagent (Calbiochem). The slides were analyzed using a Zeiss Axioplan 2 microscope.

VEGFR2 = experiment: VEGF165-induced VEGFR2 phosphorylation in CL1-5 cells (immunoprecipitation / Western blot); assay type: cell-based, human
Procedure: VEGFR2 phosphorylation was assessed as previously described (Soker S, et al., J Cell Biochem 2002, 85:357-368). Briefly, CL1-5 cells were treated with a mixture of hVEGF and sNRP1 for 30 min on ice and then at 37° C. for 7 min. Cell lysates were immunoprecipitated with anti-VEGFR2 antibodies. For Western blotting, the membranes were first probed with anti-Flk-1 antibodies and then reprobed with anti-phospho-VEGFR2 antibodies 2/3(pc460) after being stripped with deblotting buffer. In the antiangiogenesis assay, HUVECs were pretreated with peptides for 10 min followed by treatment with VEGF for 5 min, and the cells were then immediately extracted with lysis buffer. Activation of Flk-1/KDR was determined by immunoblotting cell extracts with anti-Flk-1 antibodies and then reprobing with anti-phospho-VEGFR2 antibodies (pTyr^1214) after the membranes had been stripped with deblotting buffer.

Akt = experiment: VEGF165-induced Akt phosphorylation in CL1-5 cells (Western blot); assay type: cell-based, human; conditions: 1.3 nmol/L VEGF165, 10 nmol/L sNRP1

Row | Compound | invasion ability of CL1-5 cells (in words) (CL1-5 cells [1]) | NRP1 expression (NRP1 [2]) | kon (NRP1 [4]) [M⁻¹ s⁻¹] | cytotoxicity / cell viability (CL1-5 cells [5]) | further results
1 | AACACCTAGTGGAGTGATAAA [siRNA-1] | decreased the invasion ability of CL1-5 cells in a dose-dependent manner | Significant suppression |  |  | VEGF165-induced PI3K activation (PI3K): decreased; migration of CL1-5 cells (CL1-5 cells [3]): significantly inhibited
2 | AACAGCCTTGAATGCACTTAT [siRNA-2] | decreased the invasion ability of CL1-5 cells in a dose-dependent manner | Significant suppression |  |  | 
3 | CSCC[C@@H]1NC(=O)[C@H](CCCNC(=N)N)NC(=O)[C@@H]2CCCN2C(=O)[C@H](CCCNC(=N)N)NC(=O)[C@H](CCCNC(=N)N)NC(=O)[C@@H](N)CSSC[C@@H](C(=O)O)NC(=O)[C@H]([C@@H](C)O)NC(=O)[C@H](CC(C)C)NC1=O [DG1, CRRPRMLTC] (H-CRRPRMLTC-OH; disulfide 1-9; N-terminus and C-terminus assumed) |  |  | 1230 | without affecting cell viability; also recorded: not cytotoxic | 
4 | sNRP1: Recombinant soluble NRP1 protein containing His6 and c-Myc domain tags, synthesized in NIH-3T3 cells | dose-dependent decrease |  |  |  | Kd (human VEGF165): 125 nM; F-actin polymerization and filopodia formation (CL1-5 cells [6]): inhibited F-actin polymerization and filopodia formation; VEGF165-induced VEGFR2 activation (VEGFR2; VEGF165 plus sNRP1): decreased by sNRP1 in a dose-dependent manner; VEGF165-induced VEGFR2 activation (VEGFR2; high concentrations of sNRP1): totally blocked; VEGF165-induced phosphorylation of Akt at Ser473 (Akt): decreased to less than one third
5 | CC[C@H](C)[C@@H]1NC(=O)[C@H](CCCNC(=N)N)NC(=O)[C@H](CCCNC(=N)N)NC(=O)[C@H](CO)NC(=O)[C@H](CCCNC(=N)N)NC(=O)[C@@H](N)CSSC[C@@H](C(=O)O)NC(=O)[C@H](CC(C)C)NC(=O)[C@H](CCCNC(=N)N)NC1=O [DG2, CRSRRIRLC] (H-CRSRRIRLC-OH; disulfide 1-9; N-terminus and C-terminus assumed) |  |  | 123 ± 24 | not cytotoxic | 
